# Measurements from patent US6794409B2, “Use of ERβ-selective ligands for regulating fertility and compounds useful therefor” (priority 2001, dated 2004).
# Read-outs that look alike come from different tables or passages of the source.
# Assays:
# [1] = tested on: hERβ; assay: Relative binding affinity to hERβ (Kuiper et al.); parameters: species or system human; settings: quotient of RBA hERβ / hERα
# Description: (§1) In this case, it is assumed that ERβ predominates in the rat prostates over ERα, and ERα predominates in rat uteri over ERβ.
# [2] = tested on: estrogen receptor preparations from rat uteri; assay: Competitive 3H-estradiol binding, rat uterus cytosol; settings: 3H-estradiol as ligand, estradiol = 100
# Description: as §1
# [3] = tested on: estrogen receptor preparations from rat prostates; assay: Competitive 3H-estradiol binding, rat prostate cytosol
# Description: as §1
# [4] = tested on: hERβ; settings: cited from earlier work
# [5] = tested on: hypophysectomized immature female Wistar rats; assay: Effect of ER-selective ligands on folliculogenesis in hypophysectomized rats; type: in vivo, rat; settings: hypex immature Wistar rats
# Description: Intact immature female Wistar rats were hypophysectomized (hypex) on day 24 of age (d0). The following hormone treatments were initiated six days after surgery:
# (§2) (a) hypex rats treated with vehicle (control group) (ethanol/arachisoil: 1+9 [v/v]) only
# Animals were subcutaneously treated once per day for 4 consecutive days with the respective compounds or vehicle (day 6, 7, 8, 9). Number of animals per group were 5-6. The animals were randomly assigned to the treatment and vehicle (control) group.
# One day after the last injection (day 10) animals were weighed and sacrificed by carbon dioxide asphyxiation. The ovaries were excised and weighed. Relative ovarian weights (in milligrams), defined as relative ovarian wet weights, were calculated per 100 g body weight for each animal. For each treatment group and control group the mean relative wet weights were determined. The one way ANOVA was applied to the data in order to compare treatment group values with the respective control group.
# For histological evaluation, ovaries were placed in neutral buffered 3.7% formaldehyde solution. The ovaries were then embedded in paraffin, cut into 4 μm transverse sections, and stained with hematoxylin and eosin. Ovarian sections were then evaluated qualitatively for folliculogenesis.
# [6] = tested on: hypophysectomized immature female Wistar rats; assay: Effect on late folliculogenesis and ovulation in hypophysectomized rats; type: in vivo, rat; settings: hypex immature Wistar rats; 0.01, 0.1 and 1 mg/day s.c. for 4 days, then PMSG and hCG; FIG. 3
# Description: Intact immature female Wistar rats were hypophysectomized (hypex) on day 24 of age (day 0). The following hormone treatments were initiated six days after surgery:
# as §2
# (b) hypex rats treated with 0.01, 0.1 and 1 mg 17β-estradiol/day
# (c) hypex rats treated with 0.01, 0.1 and 1 mg of the ERα-selective compound B
# (d) hypex rats treated with 0.01, 0.1 and 1 mg of the […] compound C
# Animals were subcutaneously treated once per day for 4 consecutive days with the respective compounds or vehicle (day 6, 7, 8, 9). Number of animals per group were […]. The animals were randomly assigned to the treatment and vehicle (control) group.
# One day after the last injection (day 10) animals were subcutaneously injected with 20 IU prgenant mare serum gonadotropin (PMSG). Two days later, at […], 10 IU human Chorionic Gonadotropin (hCG) were injected intraperitoneally in order to induce ovulation. At day 14 animals were weighed and sacrificed by carbon dioxide asphyxiation. The oviducts and ovaries were removed:
# The oviducts were flushed with a M-2 medium and the oocytes per animal were counted after enzymatic disassociation from the surrounding cumulus with M-2 medium supplemented with 0.3% hyaluironidase. For each treatment group and control group the mean number of ovulated oocytes were calculated.
# The ovaries were excised and weighed. Relative ovarian weights (in milligrams), defined as relative ovarian wet weights, were calculated per 100 g body weight for each animal. For each treatment group and control group the mean relativewet weights were determined.
# The one way ANOVA was applied to the data in order to compare treatment group values with the respective control group.
# [7] = tested on: intact immature female Wistar rats; assay: Effect on ovulation rate after superovulation (PMSG/hCG) of immature rats; type: in vivo, rat
# Description: Superovulation experiments were carried out in three groups of intact immature female Wistar rats on day 23 of age. Number of animals per group were 5. The animals were randomly assigned to the three groups.
# Each animal received a single subcutaneous (s.c.) injection of 20 I.U. pregnant mare's serum gonadotropin (PMSG) at day 0. At the same time (day 0) as well as 24 hours and 48 hours later the animals were s.c. injected with
# (a) the vehicle formulation (control group: ethanol/aracisoil: 1+9 [v/v]) (group 1) or
# (b) an ERβ- selective antagonist 17-Chloro-17aα-(trifluoromethyl)-17a-homoestra-1,3,5(10)16-tetraene-3,17aβ-diol (compound E) at the dose of 1 mg/kg (group 2) and 10 mg/kg (group 3). 54 hours after the start of the experiment the animals got a single intraperitoneal (i.p.) injection of 10 I.U. human chorion gonadotropin (hCG). The animals were then killed 16 hours after the hCG injection.
# The ovaries and oviducts were removed. The ovulated oocyte/cumulus mass was extracted from the oviduct by flushing the oviduct with M-2 medium and the oocytes per animal were counted after enzymatic disassociation from the surrounding cumulus with M-2 medium supplemented with 0.3% hyaluronidase.
smiles,measurement,setting,value
C[C@]12CC[C@H]3[C@@H](CC=C4C[C@@H](O)CC[C@@]43C)[C@@H]1CC[C@@H]2O [5-Androstenediol],ERβ/ERα,[1],3
same,Rat uterus ER(RBA),[2],0.1
same,Rat prost. ER(RBA),"[3]; rat prostate cytosol, 3H-estradiol as ligand, estradiol = 100",5
same,prost. ER/uterus ER,[3]; ratio of RBA rat prostate ER / rat uterus ER,50
same,hERβ RBA,[4],17
C[C@]12CC[C@@H]3c4ccc(O)cc4CC[C@H]3[C@@H]1C[C@@H](O)[C@@H]2O [Estriol],hERβ RBA,"[4]; relative binding affinity, estradiol = 100",21
"C[C@]12CC[C@@H]3c4ccc(O)cc4CC[C@H]3[C@@H]1C[C@H]1OC(=O)C[C@]12O [compound B, 3,17β-Dihydroxy-19-nor-17α-pregna-1,3,5(10)-triene-21,16α-lactone]",ovarian wet weight,"[5]; 0.01, 0.1 and 1 mg/day s.c. for 4 days, FIG. 1",not able to stimulate ovarian growth
same,"folliculogenesis, histological evaluation of ovaries","[5]; s.c. for 4 days, hematoxylin and eosin sections, FIG. 2",many small atretic follicles comparable to the vehicle control group
same,number of ovulated oocytes,[6],not able to significantly stimulate
same,ovarian wet weight,[6],not able to significantly stimulate
"C=C[C@@]12CCc3cc(O)ccc3[C@H]1CC[C@@]1(C)[C@H]2CC[C@@H]1O [compound C, 8β-Vinyl-1,3,5(10)-estratriene-3,17β-diol]",number of ovulated oocytes,[6],significantly increase the number of ovulated oocytes
same,ovarian wet weight,[6],significantly increase
"CC12CCC3c4ccc(O)cc4CCC3C1CC=C(Cl)C2(O)C(F)(F)F (stereo not drawn) [compound E, 17-Chloro-17aα-(trifluoromethyl)-17a-homoestra-1,3,5(10)16-tetraene-3,17aβ-diol]",Ovulation rate (ova/rat) [x ± sd],"[7]; 1 mg/kg/day × 3 days s.c., group 2",11 ± 5.6 ova/rat
same,Ovulation rate (ova/rat) [x ± sd],"[7]; 10 mg/kg/day × 3 days s.c., group 3",8 ± 7.2 ova/rat
same,Ovulation rate (ova/rat) [x ± sd],"[7]; 10 mg/kg/day × 3 days s.c., group 3, listed as ERβ-specific antagonist",8.0 ova/rat
